Consider 9 compounds from patent US12371454B2, “Cyclic peptide compound having Kras inhibitory action” (priority 2019, dated 2025).

pIC50: −log10 of the molar value. Starred links: 1 amine or outer side, 2 acyl side, 3 side chain; linkers in the order of their positions; H or OH if unused. Positions of bridges follow the written chain, without caps; N, C: chain ends. Non-standard residues stand in square brackets, D forms with d. Residues, ends and D or L forms follow the SMILES beside them. *: point of attachment. hPhe(3,5-F2-4-CF3) = N[C@@H](CCc1cc(F)c(C(F)(F)F)c(F)c1)C(=O)O; hPhe(3-Cl-4-CF3) = N[C@@H](CCc1ccc(C(F)(F)F)c(Cl)c1)C(=O)O; hPhe(3-F,4-CF3) = N[C@@H](CCc1ccc(C(F)(F)F)c(F)c1)C(=O)O; NMePhe(4-CF3) = CN[C@@H](Cc1ccc(C(F)(F)F)cc1)C(=O)O; hPhe(4-CF3) = N[C@@H](CCc1ccc(C(F)(F)F)cc1)C(=O)O; ACHC(1R,2R) = O=C([C@@H]1CCCC[C@H]1N[*:1])[*:2]; NMeAbu(4,4,4-F3) = CN[C@@H](CC(F)(F)F)C(=O)O; NMePhe(4-Cl) = CN[C@@H](Cc1ccc(Cl)cc1)C(=O)O; Phe(2,6-F2) = N[C@@H](Cc1c(F)cccc1F)C(=O)O; NMedβ3hAla = C[C@H](CC(=O)[*:2])N(C)[*:1]; NMeGly(cPent) = CN[C@H](C(=O)O)C1CCCC1; Pro(4,4-F2) = O=C(O)[C@@H]1CC(F)(F)CN1; NMeGly(cBu) = CN[C@H](C(=O)O)C1CCC1; NMeY = CN[C@@H](Cc1ccc(O)cc1)C(=O)O; NMeCha = CN[C@@H](CC1CCCCC1)C(=O)O; Azetidine(3,3-F2) = FC1(F)CN(*)C1; NMeChg = CN[C@H](C(=O)O)C1CCCCC1; NMeD = CN[C@@H](CC(=O)O)C(=O)O; NMeL = CN[C@@H](CC(C)C)C(=O)O; NMeV = CN[C@H](C(=O)O)C(C)C; d(β3hA) = C[C@@H](N)CC(=O)O; NMeAbu = CC[C@H](NC)C(=O)O; NMeS = CN[C@@H](CO)C(=O)O; Morpholide = C1CN(*)CCO1; NMeA = CN[C@@H](C)C(=O)O; NMeAib = CNC(C)(C)C(=O)O; Nle = CCCC[C@H](N)C(=O)O; Piperidide = C1CCN(*)CC1; Pyrrolidide = C1CCN(*)C1; dNMeA = CN[C@H](C)C(=O)O; Ac5c = NC1(C(=O)O)CCCC1; Aze = O=C(O)[C@@H]1CCN1; CH2CMe2OH = CC(C)(O)C*; Sar = CNCC(=O)O

The target of the experiment is T1, Kras and SOS1 (biotin-tagged human Kras loaded with GDP, His-tagged human SOS1) (Homo sapiens, UniProt P01116, G12D).
T1 construct: made in house; host or cells: E. coli (stated for Kras only)
T1 sequence (P01116 1-188 isoform P01116-2 G12D): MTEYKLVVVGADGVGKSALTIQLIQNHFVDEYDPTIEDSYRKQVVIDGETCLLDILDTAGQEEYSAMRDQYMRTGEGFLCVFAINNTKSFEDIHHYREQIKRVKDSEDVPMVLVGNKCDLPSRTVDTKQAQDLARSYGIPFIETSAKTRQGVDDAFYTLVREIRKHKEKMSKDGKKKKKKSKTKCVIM
Put plainly: Protein-protein interaction inhibition between Kras and SOS1 (KrasGl2D-SOS PPI) using AlphaScreen. Type of experiment: binding. The conditions noted are these: AlphaScreen; biotin-tagged human Kras loaded with GDP, His-tagged human SOS1; read-out: KRAS G12D-SOS PPI IC50. The essentials:
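Binding between SOS1 and Kras is detected as bead-proximity luminescence: illuminate Ni-conjugated donors (680 nm), collect 520-620 nm emission from streptavidin-conjugated acceptors; Kras carries biotin and GDP loaded after purification, SOS1 carries a His tag.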
(In general: In Alpha technology, singlet oxygen from a donor bead excites a nearby acceptor bead.)
For `CC[C@H](C)[C@@H]1NC(=O)[C@H](C2CCC2)N(C)C(=O)C[C@@H](C(=O)N2CCCC2)N(C)C(=O)[C@H](C2CCCCC2)N(C)C(=O)C2(CCCC2)NC(=O)[C@@H]2CC(F)(F)CN2C(=O)[C@H](CCc2cc(F)c(C(F)(F)F)c(F)c2)NC(=O)CN(C)C(=O)[C@H](CC2CCCCC2)N(C)C(=O)CN(C)C(=O)CN(C)C1=O` [Compound 1295] ([NMeGly(cBu)]I[Sar][Sar][NMeCha][Sar][hPhe(3,5-F2-4-CF3)][Pro(4,4-F2)][Ac5c][NMeChg][NMeD]-Pyrrolidide; lactam N-11), the pIC50 (as a rule, the negative decadic logarithm of the IC50, by convention in mol/L) was 9.30.

Take `CC[C@H](C)[C@@H]1NC(=O)[C@H](CC(C)C)N(C)C(=O)C[C@@H](C)N(C)C(=O)[C@H](CC(C)C)NC(=O)C(C)(C)N(C)C(=O)[C@H](CC(C)C)NC(=O)[C@H](CCc2ccc(C(F)(F)F)c(F)c2)NC(=O)CN(C)C(=O)[C@H](CC2CCCCC2)N(C)C(=O)CN(C)C(=O)[C@@H]2CCN2C1=O` [Compound 905] (cyclo([Aze][Sar][NMeCha][Sar][hPhe(3-F,4-CF3)]L[NMeAib]L[NMedβ3hAla][NMeL]I)): the negative logarithm of the IC50 (pIC50) was 6.74.

Consider `CC[C@H](C)[C@@H]1NC(=O)[C@H](C)N(C)C(=O)C[C@@H](C(=O)N2CCOCC2)N(C)C(=O)[C@H](C(C)C)N(C)C(=O)C2(CCCC2)NC(=O)[C@@H]2CCCN2C(=O)[C@H](CCc2ccc(C(F)(F)F)c(Cl)c2)NC(=O)[C@@H](C)N(C)C(=O)[C@H](CC2CCCCC2)N(C)C(=O)[C@@H]2CCCN2C(=O)CN(C)C1=O` [Compound 1788] ([NMeA]I[Sar]P[NMeCha][dNMeA][hPhe(3-Cl-4-CF3)]P[Ac5c][NMeV][NMeD]-Morpholide; lactam N-11), for which the negative-log IC50 (pIC50) is 8.37.

Consider `CC[C@H](C)[C@@H]1NC(=O)[C@H](CC(C)C)NC(=O)[C@@H]2CCCC[C@H]2NC(=O)[C@H](C(C)C)N(C)C(=O)C2(CCCC2)NC(=O)[C@@H]2CCCN2C(=O)[C@H](CCc2ccc(C(F)(F)F)c(Cl)c2)NC(=O)CN(C)C(=O)[C@H](CC2CCCCC2)N(C)C(=O)CN(C)C(=O)CN(C)C1=O` [Compound 569] (cyclo([Ac5c][NMeV][ACHC(1R,2R)]LI[Sar][Sar][NMeCha][Sar][hPhe(3-Cl-4-CF3)]P)), for which the negative logarithm of the IC50 (pIC50) is 7.14.

Take `CC[C@H](C)[C@@H]1NC(=O)[C@H](CC(C)C)N(C)C(=O)C[C@@H](C(=O)N(C)C)N(C)C(=O)[C@H](C2CCCC2)N(C)C(=O)[C@H](COC)NC(=O)[C@H](CC(=O)N2CC(F)(F)C2)N(C)C(=O)[C@H](CCc2ccc(C(F)(F)F)c(Cl)c2)NC(=O)CN(C)C(=O)[C@H](CC2CCCCC2)N(C)C(=O)[C@@H]2CCN2C(=O)[C@H](C)N(C)C1=O` [Compound 1108] ([NMeL]I[NMeA][Aze][NMeCha][Sar][hPhe(3-Cl-4-CF3)][NMeD](Azetidine(3,3-F2))S(Me)[NMeGly(cPent)][NMeD]-NMe2; lactam N-11): the pIC50 was 7.96.

In the case of `CC[C@H](C)[C@@H]1NC(=O)[C@H](C)N(C)C(=O)C[C@@H](C(=O)N2CCCC2)NC(=O)[C@H](CC(C)C)N(C)C(=O)[C@H](COCC(C)(C)O)N(C)C(=O)[C@H](CC(C)C)NC(=O)[C@H](CCc2ccc(C(F)(F)F)cc2)NC(=O)CN(C)C(=O)[C@H](Cc2ccc(Cl)cc2)N(C)C(=O)CN(C)C(=O)CN(C)C1=O` [Compound 582] ([NMeA]I[Sar][Sar][NMePhe(4-Cl)][Sar][hPhe(4-CF3)]L[NMeS](CH2CMe2OH)[NMeL]D-Pyrrolidide; lactam N-11), the negative logarithm of the IC50 (pIC50) is 7.62.

As to `CC[C@H](C)[C@@H]1NC(=O)[C@H](CC(F)(F)F)N(C)C(=O)C[C@@H](C(=O)N2CCOCC2)N(C)C(=O)[C@H](C2CCCCC2)N(C)C(=O)C2(CCCC2)NC(=O)[C@@H]2CCCN2C(=O)[C@H](CCc2ccc(C(F)(F)F)c(Cl)c2)NC(=O)CN(C)C(=O)[C@H](Cc2ccc(C(F)(F)F)cc2)N(C)C(=O)CN(C)C(=O)CN(C)C1=O` [Compound 981] ([NMeAbu(4,4,4-F3)]I[Sar][Sar][NMePhe(4-CF3)][Sar][hPhe(3-Cl-4-CF3)]P[Ac5c][NMeChg][NMeD]-Morpholide; lactam N-11), the negative logarithm of the IC50 (pIC50) was 9.43.

Regarding `CCCC[C@@H]1NC(=O)[C@H](Cc2c(F)cccc2F)NC(=O)CN(C)C(=O)[C@H](Cc2ccc(OC)cc2)N(C)C(=O)[C@@H]2CCN2C(=O)[C@H](C)N(C)C(=O)[C@H]([C@@H](C)CC)NC(=O)[C@H](CC)N(C)C(=O)C[C@@H](C(=O)N2CCCCC2)N(C)C(=O)[C@H](CC(C)C)NC(=O)C(C)(C)N(C)C1=O` [Compound 1187] ([NMeAbu]I[NMeA][Aze][NMeY](Me)[Sar][Phe(2,6-F2)][Nle][NMeAib]L[NMeD]-Piperidide; lactam N-11), the negative-log IC50 (pIC50) is 7.00.

On to `CC[C@H](C)[C@@H]1NC(=O)[C@H](CC(C)C)N(C)C(=O)C[C@@H](C)NC(=O)[C@H](C(C)C)N(C)C(=O)C2(CCCC2)NC(=O)[C@@H]2CCCN2C(=O)[C@H](CCc2ccc(C(F)(F)F)c(Cl)c2)NC(=O)CN(C)C(=O)[C@H](CC2CCCCC2)N(C)C(=O)[C@@H]2CCN2C(=O)[C@@H]2CCCN2C1=O` [Compound 1082] (cyclo([Ac5c][NMeV][d(β3hA)][NMeL]IP[Aze][NMeCha][Sar][hPhe(3-Cl-4-CF3)]P)), for which the negative logarithm of the IC50 (pIC50) is 6.57.
